Measured values: patent US20240050454A1, “Compositions and Methods For Treating Neurological Conditions” (WeSana Health Inc., priority 2020, published 2024)
“Also recorded” adds a separate entry of the source.

Key:
mice (BALB/c) [1] = assay: Tail suspension test (TST), psilocybin loading dose then psilocybin+CBD+6 MB maintenance
mice (BALB/c) [2] = assay: Elevated plus maze (EPM), anxiety-like behavior
[3] = psilocybin: loading dose 5 mg/kg alone, combination: given after the psilocybin loading dose

[3-(2-dimethylaminoethyl)-1H-indol-4-yl] dihydrogen phosphate [psilocybin]
immobile posture time in TST (mice (BALB/c) [1]; Day 15, psilocybin loading dose 5 mg/kg on Day 1, FIG. 4A): decreased | depression / depressive symptoms in mouse models (mice (BALB/c) [1]; [3]): decreased | time spent immobile in TST (mice (BALB/c) [1]; three weeks after 5 mg/kg loading dose of psilocybin (Day 22), loading dose only): significant decrease | percentage of time spent in open space (open arms of the EPM) (mice (BALB/c) [2]; Day 14, two weeks after psilocybin loading dose 5 mg/kg, vs vehicle control, FIG. 2, 5 mg/kg): significantly increased; also recorded: more time | anxiety in mouse models (mice (BALB/c) [2]; [3]): decreased
